A word on the IC50: it is the midpoint of a concentration-inhibition curve. One may read the Cmax as the peak of the concentration-time curve. As a reminder, the Tmax is the time at which the peak concentration occurs. A word on the bioavailability: it is dose-corrected exposure relative to a reference, in per cent. In general, AUC refers to the area under the concentration-time curve, a measure of exposure. For orientation: clearance means the volume of plasma or blood freed of the substance per unit of time. For orientation: half-life means the time in which the quantity being followed falls by half.

The source made the active and inactive calls. The rule behind the calls is not given here.

Series [1] has as its target Acetyl-CoA carboxylase 2 (Homo sapiens, UniProt O00763). Nature of the series: Inhibition of human recombinant ACC2 expressed in baculovirus/sf9 system.
In series [2] the target is Acetyl-CoA carboxylase 1 (Homo sapiens, UniProt Q13085). Nature of the series: Inhibition of human recombinant ACC1 expressed in HEK293 cells. The class given is cell-based.
Series [3] concerns Rattus norvegicus. Nature of the series: Drug concentration in Sprague-Dawley rat plasma at 10 mg/kg. Format: ADME, organism-based. Set-up: dose 10 mg/kg. Particulars: in vivo.
Series [4] deals with Rattus norvegicus. Nature of the series: Drug concentration in Sprague-Dawley rat plasma at 50 mg/kg. The class given is ADME, organism-based. Also on record: dose 50 mg/kg. Particulars: in vivo.
Series [5] concerns Rattus norvegicus. Nature of the series: Reduction of mCoA level in Sprague-Dawley rat liver at 50 mg/kg, po. Set-up: scale not given: the % may be the effect or the level left. Format: functional.
For series [6], the system named is Rattus norvegicus. Briefly: Reduction of mCoA level in Sprague-Dawley rat muscle at 10 mg/kg, po. The class given is functional, Muscle tissue. Set-up: scale not given: the % may be the effect or the level left.
For series [7], the system named is Rattus norvegicus. Briefly: Reduction of mCoA level in Sprague-Dawley rat muscle at 50 mg/kg, po. Format: functional, Muscle tissue. Set-up: scale not given: the % may be the effect or the level left.
Series [8] relates to Rattus norvegicus. Briefly: Reduction of mCoA level in Sprague-Dawley rat liver at 10 mg/kg, po. Format: functional, organism-based. Also on record: dose 10 mg/kg.
A short description of series [9]: Cmax in rat at 5 mg/kg. Format: ADME, organism-based. Set-up: dose 5 mg/kg. The note with it: in vivo.
The nature of series [10]: Tmax in rat at 5 mg/kg. Format: ADME, organism-based. Set-up: dose 5 mg/kg. The note with it: in vivo.
Series [11] in a line: Bioavailability in rat at 5 mg/kg. The class given is ADME, organism-based. Particulars: in vivo.
Series [12] is described as follows: AUC in rat at 5 mg/kg, po. Particulars: plasma. The class given is ADME, organism-based. Set-up: dose 5 mg/kg, route oral.
The nature of series [13]: Volume of distribution in rat at 5 mg/kg. Format: ADME, organism-based. Also on record: dose 5 mg/kg. Particulars: in vivo, read-out: Vss.
The nature of series [14]: Plasma clearance in rat at 5 mg/kg. The class given is ADME, organism-based. Set-up: dose 5 mg/kg.
A short description of series [15]: Half life in rat at 5 mg/kg, po. Format: ADME, organism-based. Also on record: dose 5 mg/kg, route oral. The note with it: in vivo.

Sequence of Acetyl-CoA carboxylase 2 (O00763 whole entry): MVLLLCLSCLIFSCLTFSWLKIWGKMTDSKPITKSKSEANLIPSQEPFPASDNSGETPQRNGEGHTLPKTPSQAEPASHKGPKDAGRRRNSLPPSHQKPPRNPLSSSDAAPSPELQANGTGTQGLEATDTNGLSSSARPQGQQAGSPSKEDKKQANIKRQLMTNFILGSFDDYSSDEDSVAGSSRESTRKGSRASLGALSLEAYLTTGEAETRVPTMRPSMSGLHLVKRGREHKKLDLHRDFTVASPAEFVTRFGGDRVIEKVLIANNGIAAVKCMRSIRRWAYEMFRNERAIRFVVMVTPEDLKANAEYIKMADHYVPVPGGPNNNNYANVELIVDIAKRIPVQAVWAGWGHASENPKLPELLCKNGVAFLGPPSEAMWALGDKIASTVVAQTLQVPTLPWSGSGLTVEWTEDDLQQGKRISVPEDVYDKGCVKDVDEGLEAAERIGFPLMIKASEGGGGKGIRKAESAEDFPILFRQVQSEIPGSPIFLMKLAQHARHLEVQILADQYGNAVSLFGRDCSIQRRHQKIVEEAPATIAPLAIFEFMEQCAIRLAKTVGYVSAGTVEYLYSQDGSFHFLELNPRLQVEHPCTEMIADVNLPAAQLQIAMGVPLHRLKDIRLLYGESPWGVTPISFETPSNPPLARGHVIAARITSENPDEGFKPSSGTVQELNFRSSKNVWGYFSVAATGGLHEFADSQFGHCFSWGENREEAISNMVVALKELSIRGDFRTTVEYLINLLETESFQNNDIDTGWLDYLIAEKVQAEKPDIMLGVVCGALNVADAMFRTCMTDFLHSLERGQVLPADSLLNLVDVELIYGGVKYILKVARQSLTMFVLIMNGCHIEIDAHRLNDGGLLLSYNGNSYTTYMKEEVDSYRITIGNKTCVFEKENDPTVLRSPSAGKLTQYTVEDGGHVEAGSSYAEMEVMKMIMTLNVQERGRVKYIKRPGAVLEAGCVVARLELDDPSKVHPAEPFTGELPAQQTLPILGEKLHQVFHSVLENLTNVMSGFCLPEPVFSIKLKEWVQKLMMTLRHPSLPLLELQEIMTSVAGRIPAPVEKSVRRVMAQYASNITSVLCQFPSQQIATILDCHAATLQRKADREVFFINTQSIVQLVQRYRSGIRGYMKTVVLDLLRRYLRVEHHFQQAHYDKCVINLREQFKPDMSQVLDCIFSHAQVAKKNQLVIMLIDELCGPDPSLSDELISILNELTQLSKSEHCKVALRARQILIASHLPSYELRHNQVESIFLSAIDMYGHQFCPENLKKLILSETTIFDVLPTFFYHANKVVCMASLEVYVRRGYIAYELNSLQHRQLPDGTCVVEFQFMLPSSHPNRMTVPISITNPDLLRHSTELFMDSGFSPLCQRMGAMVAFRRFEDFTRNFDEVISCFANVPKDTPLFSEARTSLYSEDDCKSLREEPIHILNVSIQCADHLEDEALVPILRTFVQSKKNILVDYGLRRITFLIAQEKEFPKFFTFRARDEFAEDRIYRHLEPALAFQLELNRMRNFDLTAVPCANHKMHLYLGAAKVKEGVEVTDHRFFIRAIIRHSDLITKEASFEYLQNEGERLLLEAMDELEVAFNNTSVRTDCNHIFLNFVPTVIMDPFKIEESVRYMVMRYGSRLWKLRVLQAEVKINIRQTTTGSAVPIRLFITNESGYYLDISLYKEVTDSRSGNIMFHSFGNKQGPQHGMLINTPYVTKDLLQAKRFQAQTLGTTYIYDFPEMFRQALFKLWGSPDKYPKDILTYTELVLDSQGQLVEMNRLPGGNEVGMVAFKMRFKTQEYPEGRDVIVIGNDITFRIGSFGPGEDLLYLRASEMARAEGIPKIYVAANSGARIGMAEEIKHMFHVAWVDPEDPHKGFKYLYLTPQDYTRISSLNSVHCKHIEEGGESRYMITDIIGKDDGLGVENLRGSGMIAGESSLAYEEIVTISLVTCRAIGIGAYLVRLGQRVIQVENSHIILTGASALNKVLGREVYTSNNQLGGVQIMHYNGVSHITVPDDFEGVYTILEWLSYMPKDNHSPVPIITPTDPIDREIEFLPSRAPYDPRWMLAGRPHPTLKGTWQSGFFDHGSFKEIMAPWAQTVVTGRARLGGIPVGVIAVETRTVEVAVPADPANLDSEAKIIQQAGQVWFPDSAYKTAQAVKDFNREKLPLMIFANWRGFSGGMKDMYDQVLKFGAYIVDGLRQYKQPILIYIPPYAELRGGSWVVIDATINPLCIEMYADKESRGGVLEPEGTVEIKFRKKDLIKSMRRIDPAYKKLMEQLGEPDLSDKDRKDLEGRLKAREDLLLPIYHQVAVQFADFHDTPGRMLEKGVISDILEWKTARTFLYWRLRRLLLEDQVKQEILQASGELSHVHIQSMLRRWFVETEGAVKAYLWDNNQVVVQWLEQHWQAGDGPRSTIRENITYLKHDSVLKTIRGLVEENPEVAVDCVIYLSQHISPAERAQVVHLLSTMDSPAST

In the case of `O=C(c1c2ccccc2cc2ccccc12)N1CCC(N2CCC[C@@H](C(=O)N3CCOCC3)C2)CC1`, the IC50 was 38 nM in [1] and 410 nM in series [2].

On to `CC(=O)NC(C)C#Cc1cnc(Oc2ccc(Oc3ccccc3)cc2)s1` (stereo not drawn), for which the half-maximal inhibitory concentration (IC50) was 11 nM in series [1] and 260 nM in series [2].

On to `CC(=O)NCC#Cc1cnc(Oc2ccc(OC(C)C)cc2)s1`, for which the results for the IC50 in [1] and in [2] were 1730 nM and greater than 30000 nM, respectively.

For the compound `CC(=O)NC(C)C#Cc1cnc(Oc2ccc(C(C)C)cc2)s1` (stereo not drawn), the values for the IC50 in [1] and in series [2] were greater than 30000 nM and 1250 nM, respectively.

Turning to `CC(C#Cc1cnc(Oc2ccc(Oc3ccccc3)cc2)s1)N(O)C(N)=O` (stereo not drawn), the IC50 was 80 nM in series [1] and 1000 nM in [2].

For `CC(=O)NC(C)C#Cc1csc(Oc2ccc(OC(C)C)cc2)n1` (stereo not drawn), the IC50 in series [1] and in series [2] was greater than 30000 nM throughout.

As to `COC(=O)N[C@@H](C)C#Cc1cnc(Oc2ccc(OC(C)C)cc2)s1`, the Cp came to 1.54 µg/mL in series [3] and 4.9 µg/mL in series [4]. Moreover, the Activity in [5] is 26%; in [6] it was 36%; in series [7], 54%. The figures for the IC50 in series [1] and in [2] were 38 nM and greater than 30000 nM, respectively.

Turning to `CC(=O)NC(C)C#Cc1cnc(Oc2ccc(OC(C)C)cc2)s1` (stereo not drawn), the IC50 in series [1] is 19 nM; in series [2], greater than 30000 nM.

As for `CC(O)C#Cc1cnc(Oc2ccc(Oc3ccccc3)cc2)s1` (stereo not drawn), the IC50 in [1] is 600 nM; in [2], greater than 30000 nM.

With `CNC(=O)NC(C)C#Cc1cnc(Oc2ccc(OC(C)C)cc2)s1` (stereo not drawn), the IC50 is 30 nM in series [1] and greater than 30000 nM in series [2].

Take `COC(=O)N[C@H](C)C#Cc1cnc(Oc2ccc(OC(C)C)cc2)s1`: the Cp in series [3] is 1.33 µg/mL; in series [4], 5.33 µg/mL. For the same compound, the result in [8], in [5], in series [6] (Muscle tissue) and in series [7] (Muscle tissue) was inactive. Also, the values for the IC50 in series [1] and in [2] were 1510 nM and greater than 30000 nM, respectively.

In the case of `CC(C#Cc1cnc(Oc2ccc(Oc3ccccc3)cc2)s1)NC(N)=O` (stereo not drawn), the IC50 in series [1] was 26 nM; in [2], greater than 30000 nM.

For the compound `CC(=O)NC(C)C#Cc1cnc(Oc2ccc(OC(C)C)nc2)s1` (stereo not drawn), the IC50 in [1] was 15 nM; in series [2], 390 nM.

As to `CC(=O)NC(C)C#Cc1cnc(Oc2ccc(NC(C)C)cc2)s1` (stereo not drawn), the IC50 in [1] is 150 nM; in [2] it was greater than 30000 nM.

As to `CC(N)C#Cc1cnc(Oc2ccc(Oc3ccccc3)cc2)s1` (stereo not drawn), the IC50 was 2420 nM in [1] and greater than 30000 nM in [2].

Compound `COC(=O)NC(C)C#Cc1cnc(Oc2ccc(OC(C)C)cc2)s1` (stereo not drawn) showed a Cmax in series [9] of 900 ng/mL. Besides, in [10], the time of peak concentration (Tmax) came out at 2 h. The bioavailability in series [11] worked out at 80.4%. Further, the area under the curve (AUC) in [12] came to 18900 ng·h/mL. Moreover, the Vd in series [13] worked out at 5 L/kg. In addition, the clearance in series [14] is 3.33 mL/min/kg. Also, the IC50 in [1] is 96 nM; in [2], greater than 30000 nM. In series [15], the half-life is greater than 720 min.

Consider `CC(=O)NC(C)C#Cc1cnc(Sc2ccc(OC(C)C)cc2)s1` (stereo not drawn), for which the IC50 in series [1] is 69 nM; in [2] it was greater than 30000 nM.

For the compound `CC(=O)NC(C#Cc1cnc(Oc2ccc(OC(C)C)cc2)s1)C1CC1` (stereo not drawn), the IC50 in series [1] is 840 nM; in [2] it was greater than 30000 nM.

On to `CC(=O)NC(C)C#Cc1cnc(Oc2ccc(SC(C)C)cc2)s1` (stereo not drawn), for which the IC50 turned out to be 55 nM in series [1] and 370 nM in series [2].

Turning to `CC(=O)NC(C)C#Cc1ccc(Oc2ccc(OC(C)C)cc2)cc1` (stereo not drawn), the results for the IC50 in series [1] and in series [2] were 6 nM and 29 nM, respectively.

The values are drawn from ChEMBL document CHEMBL1138057, “Synthesis and structure-activity relationships of N-{3-[2-(4-alkoxyphenoxy)thiazol-5-yl]-1- methylprop-2-ynyl}carboxy derivatives as selective acetyl-CoA carboxylase 2 inhibitors” (J Med Chem, 2006).
